# Marks after values point to notes of the source that are not given here.
# Experiments:
# T47D = test: In vivo efficacy, T47D breast cancer model; parameters: species or system mice; settings: Day 41, 150 mg/kg BID PO
# Protocol: The T47D model was established by implanting passage 3 tumor fragments into recipient mice. To establish the T47D donor mice, tumor cells (5×10^6 cell/mouse with 50% Cultrex® Basement Membrane Matrix) were subcutaneously implanted in female NSG mice. […] All mice received treatment continuously until Day 41. TGI was assessed on Day 41 post first dose.
# [1] = system: MCF7-PalboR (resistant to palbociclib); test: Proliferation inhibition, MCF7-PalboR; assay type: cell-based; settings: 168 h, read-out: Proliferation Inhibition IC50
# Protocol: Anti-proliferative activity was measured in cells treated for 7 days with PF-07104091 in OVCAR3 cells, Rb mutant NCI-H526 SCLC cells, and both HR-positive HER2-negative MCF7 and the subline MCF7-PalboR (resistant to palbociclib).
# The MCF7-PalboR cell model is refractory to palbociclib-induced proliferative inhibition at doses up to […], which exceeds the concentration expected to inhibit CDK4 and CDK6.
# MCF7 Cells = test: Combination cell proliferation assay, MCF7; assay type: cell-based, human
# Protocol: The combination effects of PF-07104091 with palbociclib were evaluated in a cell proliferation assay with MCF7 and T47D BC cell lines. […] Drug combinations were analyzed using the Dose Equivalence Principle, and the Loewe Volume score. When modeling synergy using the Dose Equivalence Principle, the Loewe Volume score for the combination compounds should be greater than the compound self-cross controls, and the Combination Index score for the combination compounds should be less than compound self-cross controls. […] Furthermore, the isobolograms set to an anti-proliferation threshold at 70% confirm a synergistic response.
smiles,measurement,setting,value
"COCc1cc(C(=O)Nc2cc([C@H]3CC[C@@H](OC(=O)NC(C)C)C3)[nH]n2)n(C)n1 [PF-07104091, (1R,3S)-3-[3-({[3-(methoxymethyl)-1-methyl-1H-pyrazol-5-yl]carbonyl}amino)-1H-pyrazol-5-yl]cyclopentyl propan-2-ylcarbamate]",TGI %,T47D,82* %
same,IC50,[1],680 nM
same,Loewe Volume,MCF7 Cells,−0.08
same,Best CI,MCF7 Cells; Best CI Level 70,1.04

# — patent US20250127759A1, “METHODS AND DOSING REGIMENS COMPRISING A CDK2 INHIBITOR FOR THE TREATMENT OF CANCER” (PFIZER INC., priority 2021, published 2025)
